The record followed here is ChEMBL document CHEMBL1128875, “Synthesis and biological activity of Para-substituted 3-phenyl docetaxel analogs” (Bioorg Med Chem Lett, 1995).

Values after ≈ are worked out from the molar mass of the structure shown. Where only a bound is given, the exact number is not on record here.

In series [1] the test system is P388. In words: In vitro cytotoxicity against murine P388 lymphocytic leukemia cells. Type of series: functional, cell-based. The note with it: Mus musculus.
Series [2] deals with Tubulin alpha chain (Sus scrofa) (UniProt P02550). Briefly: Tested for 50% inhibition of the rate of microtubule disassembly to that paclitaxel. Type of series: functional.
The test system of series [3] is Mus musculus. Briefly: In vivo antitumor activity against B16 melanoma cells in mice. Type of series: functional.
The species named for series [4] is Mus musculus. Briefly: Ratio of median tumor weight of the treated mice /control mice. Type of series: functional.
The species entered for series [5] is Mus musculus. In words: Ratio of median tumor weight of the treated mice /control mice; non evaluable: immediate death after injection (insoluble compound). The series is classed as ADME, organism-based. The note with it: in vivo.
For series [6], the species on record is Mus musculus. Briefly: Ratio of median tumor weight of the treated mice /control mice; non evaluable: delayed toxicity. Type of series: organism-based. As to conditions: in vivo.

The IC50 is the concentration that gives 50% inhibition. As a reminder, the T/C is the ratio of treated to control.

Sequence of Tubulin alpha chain (Sus scrofa) (P02550 whole entry, looked up): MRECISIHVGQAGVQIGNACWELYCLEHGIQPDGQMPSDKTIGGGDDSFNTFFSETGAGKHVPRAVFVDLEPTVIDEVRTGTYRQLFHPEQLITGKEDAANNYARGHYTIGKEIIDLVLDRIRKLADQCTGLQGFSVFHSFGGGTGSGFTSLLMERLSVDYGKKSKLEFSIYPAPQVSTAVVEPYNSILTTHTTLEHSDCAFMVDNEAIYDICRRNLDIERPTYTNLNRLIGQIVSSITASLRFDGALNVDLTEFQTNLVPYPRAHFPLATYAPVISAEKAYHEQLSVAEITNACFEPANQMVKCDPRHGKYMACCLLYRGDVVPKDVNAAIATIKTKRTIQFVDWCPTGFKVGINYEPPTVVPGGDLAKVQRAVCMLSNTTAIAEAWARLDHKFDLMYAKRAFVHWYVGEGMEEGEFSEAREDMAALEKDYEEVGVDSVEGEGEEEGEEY

Compound `C=Cc1ccc([C@H](NC(=O)OC(C)(C)C)[C@@H](O)C(=O)O[C@H]2C[C@@]3(O)[C@@H](OC(=O)c4ccccc4)[C@@H]4[C@]5(OC(C)=O)CO[C@@H]5C[C@H](O)[C@@]4(C)C(=O)[C@H](O)C(=C2C)C3(C)C)cc1` yielded a 50% inhibitory concentration (IC50) in series [1] of 0.06 µg/mL (≈ 0.0719 µM). The IC50 ratio in series [2] amounted to 0.7. In addition, in series [3], the Max tolerated dose was 38.3 mg/kg/day. In series [4], the T/C was determined as 19%.
Consider `C#Cc1ccc([C@H](NC(=O)OC(C)(C)C)[C@@H](O)C(=O)O[C@H]2C[C@@]3(O)[C@@H](OC(=O)c4ccccc4)[C@@H]4[C@]5(OC(C)=O)CO[C@@H]5C[C@H](O)[C@@]4(C)C(=O)[C@H](O)C(=C2C)C3(C)C)cc1`, for which the IC50 in series [1] stood at 0.085 µg/mL (≈ 0.102 µM). In addition, the IC50 ratio in series [2] stood at 0.6. Also, the Max tolerated dose in series [3] amounted to 21.7 mg/kg/day. In addition, the T/C in series [4] came to 15%.
Taken in the same sequence, the figures for `C=C(C)c1ccc([C@H](NC(=O)OC(C)(C)C)[C@@H](O)C(=O)O[C@H]2C[C@@]3(O)[C@@H](OC(=O)c4ccccc4)[C@@H]4[C@]5(OC(C)=O)CO[C@@H]5C[C@H](O)[C@@]4(C)C(=O)[C@H](O)C(=C2C)C3(C)C)cc1` were 0.35 µg/mL (≈ 0.413 µM), 1.8, 20 mg/kg/day and 105%.
Taken in the same sequence, the figures for `CC(=O)O[C@@]12CO[C@@H]1C[C@H](O)[C@@]1(C)C(=O)[C@H](O)C3=C(C)[C@@H](OC(=O)[C@H](O)[C@@H](NC(=O)OC(C)(C)C)c4ccc(C)cc4)C[C@@](O)([C@@H](OC(=O)c4ccccc4)[C@H]21)C3(C)C` were 0.04 µg/mL (≈ 0.0487 µM), 1.3, 15.5 mg/kg/day and 8%.
In the case of `CC(=O)O[C@@]12CO[C@@H]1C[C@H](O)[C@@]1(C)C(=O)[C@H](O)C3=C(C)[C@@H](OC(=O)[C@H](O)[C@@H](NC(=O)OC(C)(C)C)c4ccc(C(=O)c5ccccc5)cc4)C[C@@](O)([C@@H](OC(=O)c4ccccc4)[C@H]21)C3(C)C`, in series [1], the IC50 is more than 1 µg/mL. Moreover, in series [2], the IC50 ratio amounted to 20. The compound further returned a Max tolerated dose in series [3] of 20 mg/kg/day. Besides, the T/C in series [4] turned out to be 95%.
Taken in the same sequence, the figures for `CC(=O)O[C@@]12CO[C@@H]1C[C@H](O)[C@@]1(C)C(=O)[C@H](O)C3=C(C)[C@@H](OC(=O)[C@H](O)[C@@H](NC(=O)OC(C)(C)C)c4ccccc4)C[C@@](O)([C@@H](OC(=O)c4ccccc4)[C@H]21)C3(C)C.O.O.O` [DOCETAXEL] were 0.04 µg/mL, 0.64, 13.4 mg/kg/day and 0%.
Taken in the same sequence, the figures for `CC(=O)O[C@@]12CO[C@@H]1C[C@H](O)[C@@]1(C)C(=O)[C@H](O)C3=C(C)[C@@H](OC(=O)[C@H](O)[C@@H](NC(=O)OC(C)(C)C)c4ccc(C(C)=O)cc4)C[C@@](O)([C@@H](OC(=O)c4ccccc4)[C@H]21)C3(C)C` were 0.19 µg/mL (≈ 0.224 µM), 0.95, 35.3 mg/kg/day and 10%.
Take `CC(=O)O[C@@]12CO[C@@H]1C[C@H](O)[C@@]1(C)C(=O)[C@H](O)C3=C(C)[C@@H](OC(=O)[C@H](O)[C@@H](NC(=O)OC(C)(C)C)c4ccc(C=O)cc4)C[C@@](O)([C@@H](OC(=O)c4ccccc4)[C@H]21)C3(C)C`: the midpoint of inhibition in series [1], the IC50, lay at 0.13 µg/mL (≈ 0.156 µM). For the same compound, in series [2], the IC50 ratio turned out to be 0.75. The same compound displayed a Max tolerated dose in series [3] of less than 13.4 mg/kg/day. For the same compound, the T/C result in series [5] is given as “non evaluable: immediate death after injection (insoluble compound)”.
In series [1], `CC(=O)O[C@@]12CO[C@@H]1C[C@H](O)[C@@]1(C)C(=O)[C@H](O)C3=C(C)[C@@H](OC(=O)[C@H](O)[C@@H](NC(=O)OC(C)(C)C)c4ccc(-c5ccccc5)cc4)C[C@@](O)([C@@H](OC(=O)c4ccccc4)[C@H]21)C3(C)C` came in with an IC50 of 0.65 µg/mL (≈ 0.735 µM). The IC50 ratio in series [2] was 2. In series [3], the Max tolerated dose was 35 mg/kg/day. Also, in series [4], the T/C came out at 40%.
For the compound `CC(=O)O[C@@]12CO[C@@H]1C[C@H](O)[C@@]1(C)C(=O)[C@H](O)C3=C(C)[C@@H](OC(=O)[C@H](O)[C@@H](NC(=O)OC(C)(C)C)c4ccc(CO)cc4)C[C@@](O)([C@@H](OC(=O)c4ccccc4)[C@H]21)C3(C)C`, 0.06 µg/mL (≈ 0.0716 µM) corresponded to half-maximal inhibition in series [1] (IC50). The IC50 ratio in series [2] was determined as 0.4. Also, the Max tolerated dose in series [3] is less than 4.8 mg/kg/day. Also, the T/C entry in series [6] is listed as “non evaluable: delayed toxicity”.
